Laboratory results: US20170035664A1, “FLAVOR-OPTIMIZED IONIZED WATER COMPOSITIONS” (priority 2015, published 2017)
Like-named read-outs stand apart in the source and are kept apart here.

Assays:
[1] = Evaluation of calcium: bioavailability; conditions: form of calcium
[2] = Solubility of components in the exemplary compositions; assay type: physicochemical; conditions: in the current exemplary compositions
Method: Additional experiments provided a greater understanding of the ability to achieve certain functional goals for the final composition. Evaluation of phosphorus, calcium, vitamin D, fluoride, xylitol, and the pH of the alkaline ionized water was performed as described below.

[3] = cited from earlier work

In the case of CC(O)C(=O)[O-].O=C([O-])[C@H](O)[C@@H](O)[C@H](O)[C@H](O)CO.[Ca+2] [Calcium lactate gluconate], the bioavailability [1] was “bioavailable” and the solubility [2] was “very soluble”.

For OC[C@@H](O)[C@H](O)[C@@H](O)CO [xylitol], the dosage causing diarrhea ([3]; adults) is given as 100 g/day, the dosage causing diarrhea ([3]; children) is given as 45 g/day and the tolerated amount ([3]; most adults) is given as 40 g/day.

For vitamin D, the solubility [2] was “not soluble”.
